# Test system: rat mixed cerebral cell culture
# Assay: Neutralizing effect on LPS-induced cytotoxicity in a rat mixed cerebral cell culture system (LIC assay), MTT method
# Format: cell-based
# Conditions: concentration giving a recovery rate of 50%, usually 4-5 days incubation, read-out: ED50 (the source's name)
# Protocol: Neutralizing effect on lipopolysaccharide (LPS)--induced cytotoxicity in a rat mixed cerebral cell culture system (LIC assay)
# LPS, a substance known to activate glial cells (astrocytes, microglia), was added to a rat mixed cerebral cell culture system and the compounds which would neutralize the cytotoxicity induced by LPS were screened by the following method.
# (1) Neonatal rat mixed cerebral cell culture
# From neonatal Crj:CD (SD) rats (1-3 days old, Charles-River Japan, Ltd.), the brains were isolated and placed in ice-cold D-MEM/10% FCS (Dulbecco's cell culture minimal essential medium supplemented with 10% of fetal calf serum, 100 units/ml of penicillin and 100 μg/ml of streptomycin). Then, mixed cerebral cell cultures were carried out in the following steps.
# 1. The cerebrums were separated from the enucleated brains and the meninges was removed under the stereoscopic microscope.
# 2. The cerebrums were placed in a nylon-mesh (100-200 μm) bag to filter with the aid of a rubber policeman.
# 3. Using ice-cold D-MEM/10% FCS, the cells were washed 3 times (1000 rpm, 8 min.). Then, this cell suspension was filtered through a cell strainer (40 μm mesh, Falcon 2340) and the number of viable cells was counted by the trypan blue method.
# 4. The cells, were seeded in wells of a 96-well microtiter plate (Nunc) at a cell density of 1×10^5 cells/100 μl/well, and started a cell culture at 37° C.
# 5. One week later, 100 μl/well of D-MEM/10% FCS was added.
# 6. The plate was further incubated for about 1-2 weeks and the neutralizing activity of the test compound was evaluated by the following method.
# (2) Evaluation of neutralizing activity in LPS-induced cytotoxicity
# 1. Following the rat mixed cerebral cell culture described in (1) (after 2-3 weeks of incubation), the medium was discarded from the respective wells of the 96-well microtiter plate, and 50 μl/well of fresh D-MEM/2% FCS was added.
# 2. A test sample and LPS (Difco, E. coli 011: B4, Bacto) of a suitable concentration, 25 μl each per well, were respectively added. D-MEM/2% FCS was used as the medium.
# As the test sample, each of the compounds shown in Table 32 was dissolved in DMSO at a concentration of 10 ^-2 M and the solution was diluted with D-MEM/2% FCS and submitted for assay.
# 3. After a suitable period (usually 4-5 days) of incubation, the degree of cytotoxic effect was assessed by the microscopic observation, and MTT method.
# (3) MTT [3-(4,5-dimethylthiazol-2-yl)-2,5-diphenyltetra zolium bromide] method
# Ten μl of MTT solution (5 mg/ml, Sigma) dissolved in phosphate-buffered saline was added to each well. After 4-6 hours of incubation (37° C., under 10% CO2), 100 μl/well of 0.01N-hydrochloric acid containing 10% SDS was added, whereby the formed formazan was dissolved. After complete dissolution, the absorbance (540-590 nm) was measured for each well.
# The ED50 values were determined by calculating the recovery rates by means of the following equation and plotting the concentrations of compounds giving a recovery rate of 50% on graph paper.
# Recovery rate (%)=(C-B)×100/(A-B)
# [A: the absorbance at 550 nm of the control well to which only the medium had been added
# B: the absorbance at 550 nm of the well to which LPS had been added
# C: the absorbance at 550 nm of the well to which both LPS and the test compound had been added]
row,Structure (SMILES),EC50
1,"O=C(CCCCCCc1ccc2ccccc2n1)NO [Compound 1-3, 7-(2-quinolyl)heptanohydroxamic acid]",20 nM
2,"O=C(CCCC/C=C\c1ccc2ccccc2n1)NO [Compound 1-4, (Z)-7-(2-quinolyl)-6-heptenohydroxamic acid]",40 nM
3,"N#CC(CCCCCC(=O)NO)c1cccc2ccccc12 (centres unmarked) [Compound 3-2, 7-Cyano-7-(1-naphthyl)heptanohydroxamic acid]",30 nM
4,"COc1ccc(C(CCCCC(=O)NOC(C)=O)C2=C(C)C(=O)c3ccccc3C2=O)cc1 (centres unmarked) [Compound 7-1, O-Acetyl-6-(4-methoxyphenyl)-6-(3-methyl-1,4-naphthoquinon-2-yl)hexanohydroxamic acid]",50 nM
5,"CC(=O)ONC(=O)CCCCCC(C1=C(C)C(=O)C(C)=C(C)C1=O)c1ccccc1 (centres unmarked) [Compound 7-2, O-acetyl-7-(3,5,6-trimethylbenzoquinon-2-yl)-7-phenylheptanohydroxamic acid]",50 nM
6,"CC(=O)ONC(=O)CCCCCCc1ccc2ccccc2c1O [Compound 7-3, O-acetyl-7-(1-hydroxy-2-naphthyl)heptano-hydroxamic acid]",400 nM
7,"CC(=O)ONC(=O)CCCCCc1ccc2ccccc2n1 [Compound 7-4, O-acetyl-6-(2-quinolyl)hexanohydroxamic acid]",400 nM
8,"CCC(=O)ONC(=O)CCCCCC(C1=C(C)C(=O)C(C)=C(C)C1=O)c1ccccc1 (centres unmarked) [Compound 7-5, O-propionyl-7-(3,5,6-trimethylbenzoquinon-2-yl)-7-phenylheptanohydroxamic acid]",50 nM
9,"CCC(=O)ONC(=O)CCCCC(C1=C(C)C(=O)c2ccccc2C1=O)c1ccc(OC)cc1 (centres unmarked) [Compound 7-6, O-propionyl-6-(4-methoxyphenyl)-6-(3-methyl-1,4-naphthoquinon-2-yl)hexanohydroxamic acid]",50 nM
10,"CCC(=O)ONC(=O)CCCCCc1ccc2ccccc2n1 [Compound 7-7, O-propionyl-6-(2-quinolyl)hexanohydroxamic acid]",500 nM
11,"CCC(=O)ONC(=O)CCCCCC(C#N)c1cccc2ccccc12 (centres unmarked) [Compound 7-8, O-propionyl-7-cyano-7-(1-naphthyl)heptanohydroxamic acid]",30 nM
12,"CC1=C(C)C(=O)C(C(CCCCCC(=O)NOC(=O)CC(C)C)c2ccccc2)=C(C)C1=O (centres unmarked) [Compound 7-9, O-isovaleryl-7-(3,5,6-trimethylbenzoquinon-2-yl)-7-phenylheptanohydroxamicacid]",200 nM
13,"COc1ccc(C(CCCCC(=O)NOC(=O)C(C)C)C2=C(C)C(=O)c3ccccc3C2=O)cc1 (centres unmarked) [Compound 7-10, O-isobutyryl-6-(4-methoxyphenyl)-6-(3-methyl-1,4-naphthoquinon-2-yl)hexanohydroxamic acid]",300 nM
14,"CC1=C(C)C(=O)C(C(CCCCCC(=O)NOC(=O)C(C)C)c2ccccc2)=C(C)C1=O (centres unmarked) [Compound 7-11, O-isobutyryl-7-(3,5,6-trimethylbenzoquinon-2-yl)-7-phenylheptanohydroxamicacid]",200 nM
15,"N#CC(CCCCCC(=O)NOC(=O)c1ccccc1)c1cccc2ccccc12 (centres unmarked) [Compound 7-12, O-benzoyl-7-cyano-7-(1-naphthyl)heptano-hydroxamic acid]",30 nM
16,"N#CC(CCCCC(=O)NOC(=O)c1ccccc1)c1cccc2ccccc12 (centres unmarked) [Compound 7-13, O-benzoyl-6-cyano-6-(1-naphthyl)hexanohyroxamic acid]",50 nM
17,"COc1ccc(C(CCCCC(=O)NOC(=O)c2ccccc2)C2=C(C)C(=O)c3ccccc3C2=O)cc1 (centres unmarked) [Compound 7-14, O-benzoyl-6-(4-me-Ehoxyphenyl)-6-(3-methyl-1,4-naphthoquinon-2-yl)hexanohydroxamic acid]",200 nM
18,"CC1=C(C)C(=O)C(C(CCCCCC(=O)NOC(=O)c2ccccc2)c2ccccc2)=C(C)C1=O (centres unmarked) [Compound 7-15, O-benzoyl-7-(3,5,6-trimethylbenzoquinon-2-yl)-7-phenylheptanohydroxamic acid]",500 nM
19,"O=C(CCCCCc1ccc2ccccc2n1)NOC(=O)c1ccccc1 [Compound 7-16, O-benzoyl-6-(2-quinolyl)hexanohydroxamic acid]",300 nM
20,"CC1=C(C)C(=O)C(C(CCCCCC(=O)NOC(=O)C(C)(C)C)c2ccccc2)=C(C)C1=O (centres unmarked) [Compound 7-17, O-pivaloyl-7-(3,5,6-trimethylbenzoquinon-2-yl)-7-phenylheptanohydroxamic acid]",200 nM
21,"CC1=C(C(CCCCC(=O)NO)c2ccc(F)cc2)C(=O)c2ccccc2C1=O (centres unmarked) [Compound B, 6-(4-Fluorophenyl)-6-(3-methyl-1,4-naphtho-quinon-2-yl)hexanohydroxamic acid]",500 nM
22,"CC1=C(C)C(=O)C(C(CCCCCC(=O)NO)c2ccccc2)=C(C)C1=O (centres unmarked) [Compound C, 7-(3,5,6-Trimethyl-1,4-benzoquinon-2-yl)-7-phenylheptanohydroxamic acid]",300 nM
23,"CC1=C(C)C(=O)C(C(CCCCCC(=O)NO)c2ccc(C)cc2)=C(C)C1=O (centres unmarked) [Compound D, 7-(3,5,6-Trimethyl-1,4-benzoquinon-2-yl)-7-(4-methylphenyl)heptanohydroxamic acid]",100 nM
24,"CC1=C(C)C(=O)C(C(CCCCCC(=O)NO)c2ccc(F)cc2)=C(C)C1=O (centres unmarked) [Compound E, 7-(4-Fluorophenyl)-7-(3,5,6-trimethyl-1,4-benzoquinon-2-yl)heptanohydroxamic acid]",600 nM
25,"O=C(CCCCCC(c1ccccc1)c1ccc2ccccc2c1O)NO (centres unmarked) [Reference Example 46-1, 7-(1-Hydroxy-2-naphthyl)-7-phenylheptanohydroxamic acid]",50 nM
26,"O=C(CCCCCc1ccc2ccccc2c1O)NO [Reference Example 46-2, 6-(1-Hydroxy-2-naphthyl)hexanohydroxamic acid]",500 nM

# — patent publication US5804601A, “Aromatic hydroxamic acid compounds, their production and use” (Takeda Chemical Industries, Ltd., priority 1995, dated 1998)
